US20240308999A1 (priority 2021, published 2024)
pEC50, pIC50: −log10 of the molar value.

Legend:
DAT / SERT [1] = details: neurotransmitter release; cited from earlier work
DAT / SERT [2] = details: 1/IC50 at DAT divided by 1/IC50 at SERT; uptake inhibition; cited from earlier work
neuritogenesis = details: Ly et al. 2018, Figure S3, cited from earlier work
[3] = after 75 or 125 mg MDMA; standard deviation of 1.3 hours; cited from earlier work
[4] = biological target: 5-Hydroxytryptamine (Serotonin) Receptor 2B (Homo sapiens, UniProt P41595); assay: 5-HTR2B activity assay (Agonist/Antagonist); assay type: cell-based
5-Hydroxytryptamine (Serotonin) Receptor 2B, sequence (P41595 whole entry): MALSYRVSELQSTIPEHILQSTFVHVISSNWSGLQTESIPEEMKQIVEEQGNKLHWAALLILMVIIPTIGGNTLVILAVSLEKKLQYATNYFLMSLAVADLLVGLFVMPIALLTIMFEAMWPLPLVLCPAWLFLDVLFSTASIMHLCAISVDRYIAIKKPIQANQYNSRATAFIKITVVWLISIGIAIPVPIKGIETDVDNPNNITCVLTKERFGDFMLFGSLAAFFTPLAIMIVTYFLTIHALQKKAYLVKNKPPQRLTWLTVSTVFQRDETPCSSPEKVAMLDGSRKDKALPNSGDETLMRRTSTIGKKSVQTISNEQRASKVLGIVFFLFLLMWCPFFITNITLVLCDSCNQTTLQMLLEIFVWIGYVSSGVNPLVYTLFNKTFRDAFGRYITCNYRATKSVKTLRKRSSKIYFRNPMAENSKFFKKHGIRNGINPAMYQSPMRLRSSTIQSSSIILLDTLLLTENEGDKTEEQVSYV

Dopamine transporter = Dopamine transporter (Homo sapiens, UniProt Q01959); assay: DAT monoamine transporter uptake assay (Blocker)
Dopamine transporter, sequence (Q01959 whole entry): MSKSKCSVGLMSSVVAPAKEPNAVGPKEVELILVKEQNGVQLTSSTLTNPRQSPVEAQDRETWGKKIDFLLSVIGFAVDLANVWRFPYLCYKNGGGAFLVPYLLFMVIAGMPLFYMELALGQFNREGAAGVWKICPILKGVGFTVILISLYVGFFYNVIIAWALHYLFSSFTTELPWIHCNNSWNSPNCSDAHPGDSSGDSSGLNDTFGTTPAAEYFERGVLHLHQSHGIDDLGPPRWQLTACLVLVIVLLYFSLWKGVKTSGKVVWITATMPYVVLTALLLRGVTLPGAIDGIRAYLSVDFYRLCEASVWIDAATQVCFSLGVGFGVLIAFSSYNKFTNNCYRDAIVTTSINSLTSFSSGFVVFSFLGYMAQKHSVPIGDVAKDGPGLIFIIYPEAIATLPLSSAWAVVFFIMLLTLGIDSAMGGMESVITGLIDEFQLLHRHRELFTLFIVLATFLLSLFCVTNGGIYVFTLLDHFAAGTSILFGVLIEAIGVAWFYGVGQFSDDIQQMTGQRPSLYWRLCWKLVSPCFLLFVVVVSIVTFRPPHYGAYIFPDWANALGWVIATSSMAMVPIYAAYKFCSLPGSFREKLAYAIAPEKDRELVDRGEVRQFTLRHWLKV

human DAT = biological target: T1, human DAT (Homo sapiens, UniProt Q01959); assay: hDAT release assay ([3H]dopamine release); assay type: cell-based
T1 construct: expressed in transfected cells; host or cells: Chinese hamster ovary (CHO) cells
T1 sequence (Q01959 whole entry): as above

[5] = biological target: 5-Hydroxytryptamine (Serotonin) Receptor 1B (Homo sapiens, UniProt P28222); assay: 5-HTR1B activity assay (Agonist/Antagonist); assay type: cell-based
5-Hydroxytryptamine (Serotonin) Receptor 1B, sequence (P28222 whole entry): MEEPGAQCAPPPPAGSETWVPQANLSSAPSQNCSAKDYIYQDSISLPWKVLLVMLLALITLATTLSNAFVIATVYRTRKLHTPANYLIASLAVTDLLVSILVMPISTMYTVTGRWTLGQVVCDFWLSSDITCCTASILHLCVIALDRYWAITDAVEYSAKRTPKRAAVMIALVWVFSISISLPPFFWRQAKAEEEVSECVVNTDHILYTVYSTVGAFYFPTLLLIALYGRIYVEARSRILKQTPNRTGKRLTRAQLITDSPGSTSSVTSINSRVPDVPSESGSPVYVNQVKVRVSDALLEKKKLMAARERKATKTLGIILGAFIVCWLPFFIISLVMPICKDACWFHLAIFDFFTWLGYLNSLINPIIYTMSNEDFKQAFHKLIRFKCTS

human SERT = biological target: T2, human SERT (Homo sapiens, UniProt P31645); assay: hSERT release assay ([3H]serotonin release); assay type: cell-based
T2 construct: expressed in transfected cells; host or cells: Chinese hamster ovary (CHO) cells
T2 sequence (P31645 whole entry): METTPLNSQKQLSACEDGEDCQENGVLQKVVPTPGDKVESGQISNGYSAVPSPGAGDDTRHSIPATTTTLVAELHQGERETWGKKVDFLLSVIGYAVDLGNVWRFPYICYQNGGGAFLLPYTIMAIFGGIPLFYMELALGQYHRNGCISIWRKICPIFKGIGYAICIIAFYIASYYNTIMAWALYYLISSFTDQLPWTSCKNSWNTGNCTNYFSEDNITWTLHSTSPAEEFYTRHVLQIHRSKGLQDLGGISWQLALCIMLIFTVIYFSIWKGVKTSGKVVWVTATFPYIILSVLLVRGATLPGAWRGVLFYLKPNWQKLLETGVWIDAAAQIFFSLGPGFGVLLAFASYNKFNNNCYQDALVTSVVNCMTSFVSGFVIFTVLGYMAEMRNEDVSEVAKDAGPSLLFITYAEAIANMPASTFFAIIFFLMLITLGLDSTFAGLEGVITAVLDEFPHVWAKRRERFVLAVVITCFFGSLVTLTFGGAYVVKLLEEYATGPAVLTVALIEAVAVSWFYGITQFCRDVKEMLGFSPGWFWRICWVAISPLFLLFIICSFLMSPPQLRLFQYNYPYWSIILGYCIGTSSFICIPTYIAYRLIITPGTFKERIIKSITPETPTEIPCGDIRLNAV

[6] = biological target: Norepinephrine transporter (Homo sapiens, UniProt P23975); assay: NET monoamine transporter uptake assay (Blocker)
Norepinephrine transporter, sequence (P23975 whole entry): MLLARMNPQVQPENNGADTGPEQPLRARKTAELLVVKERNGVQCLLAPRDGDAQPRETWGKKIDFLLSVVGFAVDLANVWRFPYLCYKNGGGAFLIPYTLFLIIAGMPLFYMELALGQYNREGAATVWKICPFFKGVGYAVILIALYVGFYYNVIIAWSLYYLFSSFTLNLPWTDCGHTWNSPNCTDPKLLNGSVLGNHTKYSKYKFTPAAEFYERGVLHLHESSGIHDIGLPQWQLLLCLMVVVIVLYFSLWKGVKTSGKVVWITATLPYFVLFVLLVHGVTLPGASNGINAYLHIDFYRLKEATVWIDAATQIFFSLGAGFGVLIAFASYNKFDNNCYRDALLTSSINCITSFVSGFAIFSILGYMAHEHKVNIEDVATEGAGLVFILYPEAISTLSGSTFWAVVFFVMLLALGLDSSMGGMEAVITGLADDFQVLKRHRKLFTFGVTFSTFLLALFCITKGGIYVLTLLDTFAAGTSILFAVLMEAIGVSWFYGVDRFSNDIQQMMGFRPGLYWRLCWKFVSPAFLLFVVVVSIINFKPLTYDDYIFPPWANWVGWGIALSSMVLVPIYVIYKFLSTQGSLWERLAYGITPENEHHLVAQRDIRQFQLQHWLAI

DAT / NET = details: neurotransmitter release; cited from earlier work
[7] = biological target: Nicotinic acetylcholine Receptor α4 β2 (Homo sapiens, UniProt P17787+P43681); assay type: cell-based; details: nACHR(a4/b2), Blocker mode; positive control; read-out: RC50 (Result Type IC50)
Nicotinic acetylcholine Receptor α4 β2, sequence (P43681 29-627 limits assumed): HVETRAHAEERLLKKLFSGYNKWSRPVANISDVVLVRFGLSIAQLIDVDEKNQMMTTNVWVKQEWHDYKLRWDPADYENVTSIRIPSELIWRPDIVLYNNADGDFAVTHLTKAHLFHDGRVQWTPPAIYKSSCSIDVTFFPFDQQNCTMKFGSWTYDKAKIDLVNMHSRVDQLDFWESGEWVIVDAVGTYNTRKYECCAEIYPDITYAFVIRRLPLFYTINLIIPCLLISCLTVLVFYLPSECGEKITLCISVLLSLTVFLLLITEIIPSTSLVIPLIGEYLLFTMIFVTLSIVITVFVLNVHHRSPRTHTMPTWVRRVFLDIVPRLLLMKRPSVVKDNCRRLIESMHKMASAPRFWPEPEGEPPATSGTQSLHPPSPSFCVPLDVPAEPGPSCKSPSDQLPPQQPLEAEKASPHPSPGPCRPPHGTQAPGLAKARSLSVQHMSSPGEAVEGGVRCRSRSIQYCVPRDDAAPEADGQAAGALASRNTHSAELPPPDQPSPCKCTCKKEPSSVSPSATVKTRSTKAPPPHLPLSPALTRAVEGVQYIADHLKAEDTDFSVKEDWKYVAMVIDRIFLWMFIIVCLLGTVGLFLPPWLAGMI
Nicotinic acetylcholine Receptor α4 β2, sequence (P17787 26-502): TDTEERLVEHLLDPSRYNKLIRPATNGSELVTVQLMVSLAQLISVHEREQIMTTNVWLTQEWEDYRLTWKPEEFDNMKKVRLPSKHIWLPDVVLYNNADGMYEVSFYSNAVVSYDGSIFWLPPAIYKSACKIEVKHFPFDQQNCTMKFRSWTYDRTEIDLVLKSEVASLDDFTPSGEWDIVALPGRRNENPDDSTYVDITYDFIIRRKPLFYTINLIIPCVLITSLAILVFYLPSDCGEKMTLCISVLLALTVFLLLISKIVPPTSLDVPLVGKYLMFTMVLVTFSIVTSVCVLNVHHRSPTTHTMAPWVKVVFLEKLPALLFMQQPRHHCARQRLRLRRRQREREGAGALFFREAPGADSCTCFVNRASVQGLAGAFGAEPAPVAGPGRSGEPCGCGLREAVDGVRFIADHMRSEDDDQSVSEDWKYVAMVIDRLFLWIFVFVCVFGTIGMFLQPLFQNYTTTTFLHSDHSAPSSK

[8] = biological target: Gamma-aminobutyric acid Receptor A; assay type: cell-based; details: GABAA, Blocker mode; positive control; read-out: RC50 (Result Type IC50)

For `CCNC(C)Cc1ccc2c(c1)OCO2` (stereo not drawn) [MDEA, [1-(2H-1,3-benzodioxol-5-yl)propan-2-yl](ethyl)amine], the “DAT/SERT EC50 ratio” value (DAT / SERT [1]) is given as 0.76 and the “DAT/SERT IC50 ratio” value (DAT / SERT [2]) is given as 3.2.
In the case of `CNC(C)Cc1ccc2c(c1)OCO2` (stereo not drawn) [MDMA], the “Emax for promoting neuritogenesis relative to ketamine” value (neuritogenesis) is listed as “approximately twice that of ketamine”, the pEC50 (neuritogenesis; read-out: EC50 for promoting neuritogenesis) is listed as 8.13 and the “Duration of acute therapeutic effects” value [3] is listed as 4.2 h. For the same molecule, the “DAT/SERT IC50 ratio” value (DAT / SERT [2]) was 0.08.
For `CNC(C)C(=O)c1ccc2ccccn12` (stereo not drawn) [Structure XLX], the pIC50 [4] was 5.67, the pIC50 (Dopamine transporter) was 5.62 and the pEC50 (human DAT) was 6.64. The “DAT/SERT ratio*” value (human DAT; calculated as (DAT EC50)^−1/(SERT EC50)^−1, larger numbers indicate higher DAT selectivity) was 2.1, the “Relative potency of release, DAT versus 5-HT” value (human DAT; hMAT release assays) was “more potent at releasing DAT than 5-HT” and the pEC50 [5] was 5.95. It also gave a pEC50 (human SERT) of 6.96 and a pIC50 [6] of 5.24.
In the case of `C[C@H](N)Cc1ccccc1` [d-amphetamine, D-amphetamine], the “DAT/NET EC50 ratio” value (DAT / NET) is listed as 0.9.
For `CN[C@@H](C)Cc1ccccc1` [d-methamphetamine], the “DAT/NET EC50 ratio” value (DAT / NET) is listed as 0.5.
Dihydro-AY-erythroidine showed a pIC50 [7] of 6.17.
Picrotoxin gave a pIC50 [8] of 5.56.
